Patent US20110152079A1, “Pesticidal Compound Mixtures” (BAYER CROPSCIENCE AG, priority 2009, published 2011)

Experiments:
Format in all cases: in vivo
Myzus persicae = Myzus persicae - Test (sprayed cabbage leaves); conditions: single compound; for Mortality in % after 6d / mortality at 500 g/ha: 500 g/ha
Description: (§1) Solvent: 78 parts by weight of acetone • • 1.5 parts by weight of dimethylformamide Emulsifier: 0.5 parts by weight of alkylaryl polyglycole-ether
(§2) To produce a suitable preparation of active compound, 1 part by weight of active compound is mixed with the stated amount of solvent and emulsifier, and the concentrate is diluted with emulsifier-containing water to the desired concentration.
Cabbage leaves (Brassica oleracea) which are heavily infested by the green peach aphid (Myzus persicae) are treated by being sprayed with the preparation of the active compound at the desired concentration. After the specified period of time, the mortality in % is determined 100% means that all the aphids have been killed; 0% means that none of the aphids have been killed.

Tetranychus urticae = Tetranychus urticae - Test (OP-resistant, bean plants); conditions: 144 h, single compound, 6 d, read-out: Mortality in % after 6d
Description: as §1, §2
Bean plants (Phaseolus vulgaris) which are heavily infested with all stages of the two-spotted spider mite (Tetranychus urticae) are treated by being sprayed with the preparation of the active compound at the desired concentration.
After the specified period of time, mortality in % is determined 100% means that all the spider mites have been killed; 0% means that none of the spider mites have been killed.

Phaedon cochleariae = Phaedon cochleariae Larven - Test (sprayed cabbage leaves); conditions: 144 h, single compound, 6 d, read-out: Mortality in % after 6d
Description: as §1, §2
Cabbage leaves (Brassica oleracea) are treated by being sprayed with the preparation of the active compound at the desired concentration and are infested with larvae of the mustard beetle (Phaedon cochleariae) as long as the leaves are still moist.
After the specified period of time, the mortality in % is determined 100% means that all the beetle larvae have been killed; 0% means that none of the beetle larvae have been killed.

Spodoptera frugiperda = Spodoptera frugiperda - Test (sprayed cabbage leaves); conditions: 500 g/ha, single compound
Description: as §1, §2
Cabbage leaves (Brassica oleracea) are treated by being sprayed with the preparation of the active compound at the desired concentration and are infested with larvae of the fall army worm (Spodoptera frugiperda) as long as the leaves are still moist.
After the specified period of time, the mortality in % is determined 100% means that all the caterpillars have been killed; 0% means that none of the caterpillars have been killed.

[1] = Myzus persicae, 144 h, 6 d, read-out: Mortality in % after 6d

CCO[PH](=O)O [Fosetyl AL] was tested, and the “Mortality in % after 6d” value (Myzus persicae) was 0%.

In the case of Cc1ccc(N(SC(F)(Cl)Cl)S(=O)(=O)N(C)C)cc1 [Tolyfluanid], the mortality at 500 g/ha (Tetranychus urticae) is reported as 0%.

Work on CC1(C)[C@H](C=C(Cl)Cl)[C@H]1C(=O)OCc1c(F)c(F)cc(F)c1F [Transfluthrin] yielded a mortality at 20 g/ha (Myzus persicae; Myzus persicae, 144 h, 20 g/ha, 6 d, read-out: Mortality in % after 6d) of 0%, a mortality at 100 g/ha (Tetranychus urticae; 100 g/ha) of 0% and a mortality at 20 g/ha (Phaedon cochleariae; 20 g/ha) of 50%.

COC(=O)C(C)N(C(=O)Cc1ccccc1)c1c(C)cccc1C (stereo not shown) [Benalaxyl] gave a mortality at 500 g/ha (Myzus persicae; [1]) of 0%.

CCCN(CCOc1c(Cl)cc(Cl)cc1Cl)C(=O)n1ccnc1 [Prochloraz] gave a mortality at 500 g/ha (Myzus persicae; [1]) of 0%.

COCC(=O)N(c1c(C)cccc1C)C(C)C(=O)OC (stereo not shown) [Metalaxyl] was tested, and the mortality at 500 g/ha (Phaedon cochleariae; 500 g/ha) was 0%.

Work on CN(C)C(=S)SSC(=S)N(C)C [Thiram] yielded a mortality at 500 g/ha (Myzus persicae; [1]) of 0%.

In the case of CC1(C(=O)Nc2ccc(O)c(Cl)c2Cl)CCCCC1 [Fenhexamid], the mortality at 500 g/ha (Myzus persicae; [1]) is reported as 0% and the mortality at 500 g/ha (Tetranychus urticae) is reported as 0%.

N#Cc1ccccc1NC(=O)c1snc(Cl)c1Cl [Isotianil] was tested, and the “Mortality in % after 6d” value (Spodoptera frugiperda) was 0%.

For O=C(NCc1ncc(C(F)(F)F)cc1Cl)c1c(Cl)cccc1Cl [Fluopicolide], the “Mortality in % after 6d” value (Myzus persicae) was 0%.
